Test results reported in PubChem BioAssay (NCI).
Several values for one entry are separate records, joined by “and”; a condition that tells them apart may be missing. Identical values can stand only once.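 Following 48 hours of exposure in 96-well plates, responses at five concentrations were used to interpolate endpoints linearly. GI50 = concentration required for 50% inhibition of growth. At the TGI there is no net growth.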

The molecules below were run on 786-0 renal (assay: inhibition of tumour cell growth, NCI panel, 48 h).

Point of comparison: `CC(SC(C)C(=O)N/N=C/c1cccc(Cl)c1)C(=O)N/N=C\c1cccc(Cl)c1` (stereo unspecified), GI50 14.5 µM. Against it:
- CC(=O)O.CC(=O)O.CC(=O)O.CC(=O)O.CC(=O)O.CC(=O)O.O.[Ti].[Ti] — higher, > 100 µM
- Cc1ccc(Cl)cc1Nc1nc(C(F)(F)F)ccc1C(=O)N1CCN(c2ccc(F)cc2)CC1 — within 1.5-fold, 14.7 µM
- O=C(Nc1ccc(OS(=O)(=O)c2ccccc2)cc1)C12CC3CC(CC(C3)C1)C2 — 3.8-fold lower, 3.8 µM
- O=S(=O)([O-])c1ccc2c(c1)-c1nc-2nc2[n-]c(nc3nc(nc4[n-]c(n1)c1ccc(S(=O)(=O)[O-])cc41)-c1cc(S(=O)(=O)[O-])ccc1-3)c1ccc(S(=O)(=O)[O-])cc21.[Cu+2].[Na+] — higher, > 44 µM
- CCN1CCN(c2ccc(Nc3cc(N(C)C(=O)Nc4c(Cl)c(OC)cc(OC)c4Cl)ncn3)cc2)CC1 — 7.7-fold lower, 1.88 µM
- CC(C)c1ccc(Nc2ccc3c(OCCCN4CCN(C)CC4)cccc3n2)cc1 — within 1.5-fold, 11.4 µM
- COc1ccc2c(c1)C(C)Cc1c(Cl)ncnc1N2C (stereo unspecified) — 47-fold lower, 0.309 µM
- CC(C)=C[C@@H]1C[C@H](C)[C@H]2CC[C@H](C)C3=C2[C@](O)(OC3=O)[C@]1(C)O — higher, > 100 µM

Point of comparison: `COC(=O)C1=C(c2ccc3c(c2)OCO3)O[C@H](c2cc(OC)c(OC)c(OC)c2)[C@H]1COC(C)=O`, TGI 42.3 µM. Against it:
- CC(SC(C)C(=O)N/N=C/c1cccc(Cl)c1)C(=O)N/N=C\c1cccc(Cl)c1 (stereo unspecified) — within 1.5-fold, 35.5 µM
- CC(=O)O.CC(=O)O.CC(=O)O.CC(=O)O.CC(=O)O.CC(=O)O.O.[Ti].[Ti] — higher, > 100 µM
- Cc1ccc(Cl)cc1Nc1nc(C(F)(F)F)ccc1C(=O)N1CCN(c2ccc(F)cc2)CC1 — within 1.5-fold, 29.4 µM
- CCCCc1c(OC)cc(O)c2c1C(=O)c1[nH]c(C(=O)O)c(O)c(=O)c1C2=O — 1.5-fold higher, 63.8 µM
- O=C(Nc1ccc(OS(=O)(=O)c2ccccc2)cc1)C12CC3CC(CC(C3)C1)C2 — higher, > 100 µM
- COC(=O)c1cc2c3ccccc3n(C(C)=O)c2cn1 — higher, > 100 µM
- O=S(=O)([O-])c1ccc2c(c1)-c1nc-2nc2[n-]c(nc3nc(nc4[n-]c(n1)c1ccc(S(=O)(=O)[O-])cc41)-c1cc(S(=O)(=O)[O-])ccc1-3)c1ccc(S(=O)(=O)[O-])cc21.[Cu+2].[Na+] — higher, > 69.6 µM
- CCN1CCN(c2ccc(Nc3cc(N(C)C(=O)Nc4c(Cl)c(OC)cc(OC)c4Cl)ncn3)cc2)CC1 — 9.9-fold lower, 4.27 µM
- CC(C)c1ccc(Nc2ccc3c(OCCCN4CCN(C)CC4)cccc3n2)cc1 — 1.6-fold lower, 27 µM
- CCCCOC(=O)C1C(c2ccc(Cl)cc2)NC(c2ccc(Cl)cc2)C(C(=O)OCCCC)S1(=O)=O (stereo unspecified) — higher, > 100 µM
- Cc1cc(Br)cc(C)c1NC(=O)C(=O)C(C(=O)c1ccc2ccccc2c1)C1OC(=O)c2ccccc21 (stereo unspecified) — 2.2-fold lower, 19.3 µM
- COc1ccc2c(c1)C(C)Cc1c(Cl)ncnc1N2C (stereo unspecified) — 7.8-fold lower, 5.45 µM
- CC(C)=C[C@@H]1C[C@H](C)[C@H]2CC[C@H](C)C3=C2[C@](O)(OC3=O)[C@]1(C)O — higher, > 100 µM
- O=C1c2ccccc2C(=O)C1(Cl)C1(S(=O)(=O)O)c2ccccc2-c2ccccc21 — higher, > 100 µM

The molecules below were run on OVCAR-8 ovarian (assay: inhibition of tumour cell growth, NCI panel, 48 h).

Point of comparison: `CC(C)(C)C(=O)OCOP(=O)(OCOC(=O)C(C)(C)C)C1CCCN(O)C1=O` (stereo unspecified), TGI 8.91 µM. Against it:
- O=C(CCCn1ccnc1[N+](=O)[O-])NCCn1cncc1[N+](=O)[O-] — higher, > 100 µM
- Cn1cc(C2=C(c3ccc4ccccc4c3)C(=O)NC2=O)c2ccccc21 — higher, > 25 µM
- O=C(OCc1ccc2cccc(O)c2n1)N1CCN(C(=O)c2cc3cc(F)ccc3[nH]2)CC1 — 3.6-fold lower, 2.47 µM
- C[As](C)SC1OC(CO)C(O)C1O (stereo unspecified) — 2.8-fold lower, 3.15 µM
- Cn1c(=O)c2c(nc(Nc3cc(=O)[nH]c(=O)[nH]3)n2Cc2ccccc2)n(C)c1=O — higher, > 100 µM
- COc1ccc2c(c1)CCC1C2CC[C@@]2(C)C1CC1=CC(COC(C)=O)C3C(=O)c4ccccc4C(=O)C3C12 (stereo partly specified) — higher, > 100 µM
- C=C(F)C(=O)N1CCN(c2nc(OC[C@@H]3CCCN3C)nc3c2CCN(c2cccc4cccc(Cl)c24)C3)C[C@@H]1CC#N — 5-fold lower, 1.79 µM
- O=C1CCCC/C(=C/c2ccccc2)N1 — higher, > 100 µM
- CC/C(=C(/c1ccc(OCCN(C)C)cc1)c1ccc(OC(=O)CCCCC(=O)c2c(C)[nH]c(/C=C3\N=C(c4ccc[nH]4)C=C3OC)c2C)cc1)c1ccccc1 — 2.2-fold higher, 19.9 µM
- CC(=O)OC1Oc2ccccc2-c2oc(=O)c(-c3cc(=O)oc4cc(O)ccc34)cc21 (stereo unspecified) — higher, > 100 µM
- CC(SC(C)C(=O)N/N=C/c1cccc(Cl)c1)C(=O)N/N=C\c1cccc(Cl)c1 (stereo unspecified) — 2.6-fold higher, 23.2 µM
- CC(=O)O.CC(=O)O.CC(=O)O.CC(=O)O.CC(=O)O.CC(=O)O.O.[Ti].[Ti] — higher, > 100 µM
- COC(=O)C1=C(c2ccc3c(c2)OCO3)O[C@H](c2cc(OC)c(OC)c(OC)c2)[C@H]1COC(C)=O — 11-fold higher, 93.6 µM
- Cc1ccc(Cl)cc1Nc1nc(C(F)(F)F)ccc1C(=O)N1CCN(c2ccc(F)cc2)CC1 — 5.6-fold higher, 50.2 µM
- CCCCc1c(OC)cc(O)c2c1C(=O)c1[nH]c(C(=O)O)c(O)c(=O)c1C2=O — 3.2-fold higher, 28.8 µM
- O=C(Nc1ccc(OS(=O)(=O)c2ccccc2)cc1)C12CC3CC(CC(C3)C1)C2 — higher, > 100 µM

Point of comparison: `CC(=O)OC1Oc2ccccc2-c2oc(=O)c(-c3cc(=O)oc4cc(O)ccc34)cc21` (stereo unspecified), GI50 19.8 µM. Against it:
- Cn1cc(C2=C(c3ccc4ccccc4c3)C(=O)NC2=O)c2ccccc21 — higher, > 25 µM
- O=C(OCc1ccc2cccc(O)c2n1)N1CCN(C(=O)c2cc3cc(F)ccc3[nH]2)CC1 — 20-fold lower, 1.01 µM
- C[As](C)SC1OC(CO)C(O)C1O (stereo unspecified) — 29-fold lower, 0.694 µM
- Cn1c(=O)c2c(nc(Nc3cc(=O)[nH]c(=O)[nH]3)n2Cc2ccccc2)n(C)c1=O — higher, > 100 µM
- COc1ccc2c(c1)CCC1C2CC[C@@]2(C)C1CC1=CC(COC(C)=O)C3C(=O)c4ccccc4C(=O)C3C12 (stereo partly specified) — higher, > 100 µM
- C=C(F)C(=O)N1CCN(c2nc(OC[C@@H]3CCCN3C)nc3c2CCN(c2cccc4cccc(Cl)c24)C3)C[C@@H]1CC#N — 42-fold lower, 0.473 µM
- CC/C(=C(/c1ccc(OCCN(C)C)cc1)c1ccc(OC(=O)CCCCC(=O)c2c(C)[nH]c(/C=C3\N=C(c4ccc[nH]4)C=C3OC)c2C)cc1)c1ccccc1 — 3-fold lower, 6.55 µM
- CC(C)(C)C(=O)OCOP(=O)(OCOC(=O)C(C)(C)C)C1CCCN(O)C1=O (stereo unspecified) — 65-fold lower, 0.305 µM
- CC(SC(C)C(=O)N/N=C/c1cccc(Cl)c1)C(=O)N/N=C\c1cccc(Cl)c1 (stereo unspecified) — 4.1-fold lower, 4.78 µM
- CC(=O)O.CC(=O)O.CC(=O)O.CC(=O)O.CC(=O)O.CC(=O)O.O.[Ti].[Ti] — higher, > 100 µM
- Cc1ccc(Cl)cc1Nc1nc(C(F)(F)F)ccc1C(=O)N1CCN(c2ccc(F)cc2)CC1 — within 1.5-fold, 16.6 µM
- O=C(Nc1ccc(OS(=O)(=O)c2ccccc2)cc1)C12CC3CC(CC(C3)C1)C2 — higher, > 100 µM

In the case of `CC[C@]12C=CCN3CC[C@@]4(c5ccc(OC)cc5N(C)[C@H]4[C@@](O)(C(=O)OC)[C@@H]1OC(=O)CCC[P+](c1ccccc1)(c1ccccc1)c1ccccc1)[C@@H]32`, the GI50 is reported as 1.45 µM and 1.59 µM.

In the case of `CC[C@]12C=CCN3CC[C@@]4(c5ccc(OC)cc5N(C)[C@H]4[C@@](O)(C(=O)OC)[C@@H]1OC(=O)CCC[P+](c1ccccc1)(c1ccccc1)c1ccccc1)[C@@H]32`, the TGI is reported as 6.77 µM and 9.71 µM.
